Measured values: patent US20250346574A1, “PYRIDINYL SUBSTITUTED OXOISOINDOLINE COMPOUNDS FOR THE TREATMENT OF CANCER” (Bristol-Myers Squibb Company, priority 2021, published 2025)

biological target: Helios (Homo sapiens, UniProt Q96SW2+Q9UKS7); experiment: Helios Human T Regulatory Cells Degradation Assay; format: cell-based; parameters: fluorescently labelled antibodies against Helios in 1× Permeabilization buffer; endogenous in cells; host or cells: cryopreserved human T regulatory cells; conditions: cryopreserved human T regulatory cells, incubated 20 hours, Helios-APC antibody staining, flow cytometry; read-out: hTreg Helios DC50
Method: Cryopreserved human T regulatory cells were thawed in RPMI+10% FBS+20 ng/mL IL-2. After being spun at 1200 rpm for 5 mins, the cells were resuspended in RPMI+10% FBS+20 ng/mL and rested at 37° C. with 5% CO2 for 3 hours. […] Cell cultures were incubated for 20 hours at 37° C. and 5% CO2. In order to facilitate analysis, cell cultures were spun down at 1200 rpm for 5 minutes and the supernatant was discarded using an EL406 plate washer. After washing three times with 70 μL PBS, cell pellets were resuspended in 50 μL of near IR viability staining solution (Life Technologies, Cat #L34975) and incubated for 30 minutes on ice protected from light. Cells were washed three times with 70 μL PBS+0.5% BSA using an EL406 plate washer. […] Subsequently, 30 μL of 1× Permeabilization buffer was added prior to centrifuging the cells and discarding the supernatant. Stained cells were resuspended in 30 μL of flow cytometry staining buffer (PBS+0.5% BSA) and analyzed using an Intellicyt Ique Plus flow cytometer.

Helios, sequence (Q9UKS7 whole entry): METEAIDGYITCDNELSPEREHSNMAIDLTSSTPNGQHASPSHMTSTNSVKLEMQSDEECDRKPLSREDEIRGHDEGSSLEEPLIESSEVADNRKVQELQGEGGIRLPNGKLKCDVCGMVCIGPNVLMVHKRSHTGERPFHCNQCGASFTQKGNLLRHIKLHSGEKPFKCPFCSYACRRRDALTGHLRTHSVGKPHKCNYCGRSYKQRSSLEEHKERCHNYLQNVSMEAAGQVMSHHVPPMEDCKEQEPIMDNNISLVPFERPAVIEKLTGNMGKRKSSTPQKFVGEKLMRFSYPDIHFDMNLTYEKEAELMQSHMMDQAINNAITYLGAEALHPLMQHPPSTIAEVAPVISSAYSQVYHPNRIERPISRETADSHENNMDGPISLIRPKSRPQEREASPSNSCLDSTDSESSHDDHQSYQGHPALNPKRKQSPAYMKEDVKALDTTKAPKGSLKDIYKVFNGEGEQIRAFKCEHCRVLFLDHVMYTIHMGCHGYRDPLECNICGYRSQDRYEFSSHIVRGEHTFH
Helios, sequence (Q96SW2 whole entry): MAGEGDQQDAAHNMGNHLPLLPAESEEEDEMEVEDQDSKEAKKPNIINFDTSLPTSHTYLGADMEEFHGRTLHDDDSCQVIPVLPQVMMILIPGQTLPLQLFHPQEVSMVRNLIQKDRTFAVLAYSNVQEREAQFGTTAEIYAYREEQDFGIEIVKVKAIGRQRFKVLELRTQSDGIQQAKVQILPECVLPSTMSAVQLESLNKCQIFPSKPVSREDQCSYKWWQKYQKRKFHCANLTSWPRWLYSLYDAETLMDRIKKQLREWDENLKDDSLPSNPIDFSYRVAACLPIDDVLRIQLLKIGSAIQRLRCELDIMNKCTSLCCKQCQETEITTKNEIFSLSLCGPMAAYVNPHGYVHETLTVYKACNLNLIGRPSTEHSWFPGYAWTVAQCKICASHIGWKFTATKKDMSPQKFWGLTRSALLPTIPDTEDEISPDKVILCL
Helios, sequence (Q16531 whole entry partner): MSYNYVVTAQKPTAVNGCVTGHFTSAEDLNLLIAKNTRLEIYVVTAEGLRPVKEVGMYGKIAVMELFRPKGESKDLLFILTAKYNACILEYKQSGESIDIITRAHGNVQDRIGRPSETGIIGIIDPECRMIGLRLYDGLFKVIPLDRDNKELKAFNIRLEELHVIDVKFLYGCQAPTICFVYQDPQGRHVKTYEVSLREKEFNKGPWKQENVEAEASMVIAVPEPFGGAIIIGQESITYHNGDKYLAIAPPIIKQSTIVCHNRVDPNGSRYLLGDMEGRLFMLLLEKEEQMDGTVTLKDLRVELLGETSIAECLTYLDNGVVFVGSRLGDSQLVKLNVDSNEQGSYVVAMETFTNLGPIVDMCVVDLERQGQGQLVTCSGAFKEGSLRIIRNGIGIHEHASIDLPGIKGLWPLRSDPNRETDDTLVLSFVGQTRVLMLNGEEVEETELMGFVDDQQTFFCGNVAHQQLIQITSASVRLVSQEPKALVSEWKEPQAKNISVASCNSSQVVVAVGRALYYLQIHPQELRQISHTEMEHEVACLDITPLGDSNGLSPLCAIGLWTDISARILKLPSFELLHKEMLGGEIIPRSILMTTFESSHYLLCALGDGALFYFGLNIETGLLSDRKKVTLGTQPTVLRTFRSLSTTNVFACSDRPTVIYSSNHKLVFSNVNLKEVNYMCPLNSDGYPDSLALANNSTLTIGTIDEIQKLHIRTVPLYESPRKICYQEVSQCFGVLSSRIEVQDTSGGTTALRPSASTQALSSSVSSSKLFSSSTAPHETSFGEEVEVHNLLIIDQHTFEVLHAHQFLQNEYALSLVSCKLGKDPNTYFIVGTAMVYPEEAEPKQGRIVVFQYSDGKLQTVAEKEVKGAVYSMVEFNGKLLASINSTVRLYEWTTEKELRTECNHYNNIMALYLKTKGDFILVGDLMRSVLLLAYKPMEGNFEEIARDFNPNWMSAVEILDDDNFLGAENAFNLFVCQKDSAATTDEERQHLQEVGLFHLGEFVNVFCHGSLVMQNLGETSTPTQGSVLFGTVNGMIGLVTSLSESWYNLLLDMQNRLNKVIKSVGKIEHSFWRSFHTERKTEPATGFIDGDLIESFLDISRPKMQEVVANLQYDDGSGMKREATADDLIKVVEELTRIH

Row | Structure (SMILES) | DC50
1 | COCC1CN(Cc2cc(-c3ccc4c(c3)CN(C3CCC(=O)NC3=O)C4=O)ncc2C(F)(F)F)C1 (stereo not shown) [Example 181, 3-(5-(4-((3-(methoxymethyl)azetidin-1-yl)methyl)-5-(trifluoromethyl)pyridin-2-yl)-1-oxoisoindolin-2-yl)piperidine-2,6-dione] | ≥ 10000 nM
2 | C[C@@H]1c2c(ccc(-c3cc(CN4CC[C@@H](CO)C4)ccn3)c2F)C(=O)N1[C@H]1CCC(=O)NC1=O [Example 133, (S)-3-((R)-4-fluoro-5-(4-(((R)-3-(hydroxymethyl)pyrrolidin-1-yl)methyl)pyridin-2-yl)-3-methyl-1-oxoisoindolin-2-yl)piperidine-2,6-dione] | 23.1 nM
3 | CC(=O)N1CC2(CCN(Cc3ccnc(-c4ccc5c(c4)CN(C4CCC(=O)NC4=O)C5=O)c3F)CC2)C1 (stereo not shown) [Example 251, 3-(5-(4-((2-acetyl-2,7-diazaspiro[3.5]nonan-7-yl)methyl)-3-fluoropyridin-2-yl)-1-oxoisoindolin-2-yl)piperidine-2,6-dione] | ≥ 10000 nM
4 | CC(=O)N1CCCC12CCN(Cc1ccnc(-c3ccc4c(c3)CN(C3CCC(=O)NC3=O)C4=O)c1F)C2 (stereo not shown) [Example 270, 3-(5-(4-((1-acetyl-1,7-diazaspiro[4.4]nonan-7-yl)methyl)-3-fluoropyridin-2-yl)-1-oxoisoindolin-2-yl)piperidine-2,6-dione] | ≥ 10000 nM
5 | CC(C)(O)[C@@H]1CCN(Cc2ccnc(-c3ccc4c(c3)CN(C3CCC(=O)NC3=O)C4=O)c2F)C1 (stereo partly drawn) [Example 111, 3-(5-(3-fluoro-4-(((R)-3-(2-hydroxypropan-2-yl)pyrrolidin-1-yl)methyl)pyridin-2-yl)-1-oxoisoindolin-2-yl) piperidine-2,6-dione] | 10.4 nM
6 | CC1(C)CN(Cc2ccnc(-c3ccc4c(c3)CN(C3CCC(=O)NC3=O)C4=O)c2F)CCC1O (stereo not shown) [Example 221, 3-(5-(3-fluoro-4-((4-hydroxy-3,3-dimethylpiperidin-1-yl)methyl)pyridin-2-yl)-1-oxoisoindolin-2-yl)piperidine-2,6-dione] | 13900 nM
7 | CN(C(=O)c1ccccc1)C1CN(Cc2ccnc(-c3ccc4c(c3)CN([C@H]3CCC(=O)NC3=O)C4=O)c2)C1 [Example 160, (S)—N-(1-((2-(2-(2,6-dioxopiperidin-3-yl)-1-oxoisoindolin-5-yl)pyridin-4-yl)methyl)azetidin-3-yl)-N-methylbenzamide] | 61.9 nM
8 | O=C1CCC(N2Cc3cc(-c4nccc(CN5CCc6oncc6C5)c4F)ccc3C2=O)C(=O)N1 (stereo not shown) [Example 259, 3-(5-(4-((6,7-dihydroisoxazolo[4,5-c]pyridin-5(4H)-yl)methyl)-3-fluoropyridin-2-yl)-1-oxoisoindolin-2-yl)piperidine-2,6-dione] | ≥ 10000 nM
9 | C[C@@H]1c2c(ccc(-c3cc(CN4CC[C@H](F)C4)ccn3)c2F)C(=O)N1[C@H]1CCC(=O)NC1=O [Example 142] | 706 nM
10 | CC(C)(C)OC(=O)N1CCCC12CCN(Cc1ccnc(-c3ccc4c(c3)CN(C3CCC(=O)NC3=O)C4=O)c1F)C2 (stereo not shown) [Example 213, tert-butyl 7-((2-(2-(2,6-dioxopiperidin-3-yl)-1-oxoisoindolin-5-yl)-3-fluoropyridin-4-yl)methyl)-1,7-diazaspiro[4.4]nonane-1-carboxylate] | ≥ 10000 nM
11 | CC(C)(C)OC(=O)N1C[C@H]2CN(Cc3ccnc(-c4ccc5c(c4)CN([C@H]4CCC(=O)NC4=O)C5=O)c3F)C[C@H]2C1 [Example 156, tert-butyl (3aR,6aS)-5-((2-(2-((S)-2,6-dioxopiperidin-3-yl)-1-oxoisoindolin-5-yl)-3-fluoropyridin-4-yl)methyl)hexahydropyrrolo[3,4-c]pyrrole-2(1H)-carboxylate] | ≥ 10000 nM
12 | O=C1CCC(N2Cc3cc(-c4nccc(CN5CC[C@H](O)C5)c4F)ccc3C2=O)C(=O)N1 (stereo partly drawn) [Example 114, 3-(5-(3-fluoro-4-(((S)-3-hydroxypyrrolidin-1-yl)methyl)pyridin-2-yl)-1-oxoisoindolin-2-yl)piperidine-2,6-dione] | 23.5 nM
13 | O=C1CCC(N2Cc3cc(-c4nccc(CN5CCC(O)(c6ccc(F)cc6)C5)c4F)ccc3C2=O)C(=O)N1 (stereo not shown) [Example 234, 3-(5-(3-fluoro-4-((3-(4-fluorophenyl)-3-hydroxypyrrolidin-1-yl)methyl)pyridin-2-yl)-1-oxoisoindolin-2-yl)piperidine-2,6-dione] | 8410 nM
14 | COC(=O)N1CC2(CCN(Cc3ccnc(-c4ccc5c(c4)CN(C4CCC(=O)NC4=O)C5=O)c3F)CC2)C1 (stereo not shown) [Example 252, methyl 7-((2-(2-(2,6-dioxopiperidin-3-yl)-1-oxoisoindolin-5-yl)-3-fluoropyridin-4-yl)methyl)-2,7-diazaspiro[3.5]nonane-2-carboxylate] | ≥ 10000 nM
15 | O=C1CCC(N2Cc3cc(-c4nccc(CN5CC[C@H](CO)C5)c4F)ccc3C2=O)C(=O)N1 (stereo partly drawn) [Example 109, 3-(5-(3-fluoro-4-(((S)-3-(hydroxymethyl)pyrrolidin-1-yl)methyl)pyridin-2-yl)-1-oxoisoindolin-2-yl)piperidine-2,6-dione] | 21.3 nM

The remaining lines, values ahead:

Row | DC50 | Structure (SMILES)
16 | 1.4 nM | CC(O)C1CCN(Cc2ccnc(-c3ccc4c(c3)CN(C3CCC(=O)NC3=O)C4=O)c2)CC1 (stereo not shown) [Example 108, 3-(5-(4-((4-(1-hydroxyethyl)piperidin-1-yl)methyl)pyridin-2-yl)-1-oxoisoindolin-2-yl)piperidine-2,6-dione]
17 | ≥ 10000 nM | CC(C)(C)OC(=O)N1CCC12CCCN(Cc1ccnc(-c3ccc4c(c3)CN(C3CCC(=O)NC3=O)C4=O)c1F)C2 (stereo not shown) [Example 216, tert-butyl 6-((2-(2-(2,6-dioxopiperidin-3-yl)-1-oxoisoindolin-5-yl)-3-fluoropyridin-4-yl)methyl)-1,6-diazaspiro[3.5]nonane-1-carboxylate]
18 | 1140 nM | Cc1ccc(C)c(C2(O)CCN(Cc3ccnc(-c4ccc5c(c4)CN(C4CCC(=O)NC4=O)C5=O)c3F)C2)c1 (stereo not shown) [Example 256, 3-(5-(4-((3-(2,5-dimethylphenyl)-3-hydroxypyrrolidin-1-yl)methyl)-3-fluoropyridin-2-yl)-1-oxoisoindolin-2-yl)piperidine-2,6-dione]
19 | 3.7 nM | Cc1cnc(-c2ccc3c(c2)CN(C2CCC(=O)NC2=O)C3=O)cc1CN1CC2(CCC2)C1 (stereo not shown) [Example 168, 3-(5-(4-((2-azaspiro[3.3]heptan-2-yl)methyl)-5-methylpyridin-2-yl)-1-oxoisoindolin-2-yl)piperidine-2,6-dione]
20 | ≥ 10000 nM | COC(=O)N1CC2CCCN(Cc3ccnc(-c4ccc5c(c4)CN(C4CCC(=O)NC4=O)C5=O)c3F)C2C1 (stereo not shown) [Example 275, methyl 1-((2-(2-(2,6-dioxopiperidin-3-yl)-1-oxoisoindolin-5-yl)-3-fluoropyridin-4-yl)methyl)octahydro-6H-pyrrolo[3,4-b]pyridine-6-carboxylate]
21 | ≥ 10000 nM | CC(C)(C)OC(=O)N1CCC2(CN(Cc3ccnc(-c4ccc5c(c4)CN(C4CCC(=O)NC4=O)C5=O)c3F)C2)C1 (stereo not shown) [Example 207, tert-butyl 2-((2-(2-(2,6-dioxopiperidin-3-yl)-1-oxoisoindolin-5-yl)-3-fluoropyridin-4-yl)methyl)-2,6-diazaspiro[3.4]octane-6-carboxylate]
22 | ≥ 10000 nM | O=C1CCC(N2Cc3cc(-c4nccc(CN5CCC6(CC5)OCc5ccccc56)c4F)ccc3C2=O)C(=O)N1 (stereo not shown) [Example 249, 3-(5-(4-((3H-spiro[isobenzofuran-1,4′-piperidin]-1′-yl)methyl)-3-fluoropyridin-2-yl)-1-oxoisoindolin-2-yl)piperidine-2,6-dione]
23 | 13.9 nM | CC(O)C1CCN(Cc2ccnc(-c3ccc4c(c3)CN(C3CCC(=O)NC3=O)C4=O)c2F)CC1 (stereo not shown) [Example 113, 3-(5-(3-fluoro-4-((4-(1-hydroxyethyl)piperidin-1-yl)methyl)pyridin-2-yl)-1-oxoisoindolin-2-yl) piperidine-2,6-dione]
24 | ≥ 10000 nM | O=C1CCC(N2Cc3cc(-c4nccc(CN5Cc6cccc(F)c6C5)c4F)ccc3C2=O)C(=O)N1 (stereo not shown) [Example 186, 3-(5-(3-fluoro-4-((4-fluoroisoindolin-2-yl)methyl)pyridin-2-yl)-1-oxoisoindolin-2-yl)piperidine-2,6-dione]
25 | 3.2 nM | O=C1CCC(N2Cc3cc(-c4cc(CN5CCC6(CC5)COC6)ccn4)ccc3C2=O)C(=O)N1 (stereo not shown) [Example 100, 3-(5-(4-((2-oxa-7-azaspiro[3.5]nonan-7-yl)methyl)pyridin-2-yl)-1-oxoisoindolin-2-yl)piperidine-2,6-dione]
26 | 31.8 nM | CC(C)(O)[C@@H]1CCN(Cc2ccnc(-c3ccc4c(c3F)CN(C3CCC(=O)NC3=O)C4=O)c2F)C1 (stereo partly drawn) [Example 278, 3-(4-fluoro-5-(3-fluoro-4-(((R)-3-(2-hydroxypropan-2-yl)pyrrolidin-1-yl)methyl)pyridin-2-yl)-1-oxoisoindolin-2-yl)piperidine-2,6-dione]
27 | 6 nM | CC(C)(O)[C@@H]1CCN(Cc2ccnc(-c3ccc4c(c3)CN(C3CCC(=O)NC3=O)C4=O)c2)C1 (stereo partly drawn) [Example 106, 3-(5-(4-(((R)-3-(2-hydroxypropan-2-yl)pyrrolidin-1-yl)methyl)pyridin-2-yl)-1-oxoisoindolin-2-yl)piperidine-2,6-dione]
28 | 28.7 nM | CC(C)(C)NC(=O)C1CCCN1Cc1ccnc(-c2ccc3c(c2)CN(C2CCC(=O)NC2=O)C3=O)c1 (stereo not shown) [Example 188, N-(tert-butyl)-1-((2-(2-(2,6-dioxopiperidin-3-yl)-1-oxoisoindolin-5-yl)pyridin-4-yl)methyl)pyrrolidine-2-carboxamide]
